Test results reported in patent publication US7030265B2, “Retinol derivatives, the method of preparations and the uses thereof” (Chebigen, Inc., priority 2001, dated 2006).

Legend:
Assay type in all cases: cell-based
retinoid X receptor γ = target: T1, retinoid X receptor γ (Homo sapiens, UniProt P48443); test: RXR activity test, DR1-tk-CAT reporter in HaCAT cells; conditions: 1 μM, CAT ELISA, FIG. 2 (B)
T1 construct: expressed in transfected cells; host or cells: HaCAT
T1 sequence (P48443 1-463): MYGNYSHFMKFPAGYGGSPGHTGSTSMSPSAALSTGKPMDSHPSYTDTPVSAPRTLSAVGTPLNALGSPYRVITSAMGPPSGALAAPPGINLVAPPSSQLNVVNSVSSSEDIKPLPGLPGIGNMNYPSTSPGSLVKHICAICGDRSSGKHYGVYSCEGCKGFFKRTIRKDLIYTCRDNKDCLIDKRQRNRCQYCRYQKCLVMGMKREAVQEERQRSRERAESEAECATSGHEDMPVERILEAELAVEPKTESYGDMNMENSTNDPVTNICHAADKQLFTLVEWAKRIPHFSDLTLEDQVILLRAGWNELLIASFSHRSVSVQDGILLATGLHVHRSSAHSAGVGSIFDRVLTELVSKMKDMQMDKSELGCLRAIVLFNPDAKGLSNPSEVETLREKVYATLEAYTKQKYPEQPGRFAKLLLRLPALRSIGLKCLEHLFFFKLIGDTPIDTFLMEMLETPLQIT
Description: (§1) To analyze the effects of retinol-(N-formyl-aspartam) on the activity of retinoic acid receptor, skin cancer (HaCAT) cell lines were utilized to measure the activity of retinoic acid receptor/retinoid X receptor.
(§2) Recombinant DNA, DR5-tk-CAT or DR1-tk-CAT consisting of DR1 or DR5, effectors of retinoic acid receptor/retinoid X receptor, thymine kinase promoter, and CAT(chloramphenicol acetyl transferase) were mixed with the plasmid DNA expressing retinoic acid receptor α, β, ? or retinoid X receptor α, β, ? to cotransfect skin cancer (HaCAT) cell line with lipofectamine (GibcoBRL). The cotransfected cell lines were cultured for 1 day on DMEM/10% FBS media, each retinol derivatives (1 μM) were added and cultured for one more day, 5% CO2, 37° C. The cells were washed with phosphate-buffered saline (PBS), and the proteins were isolated from each cells, and the activity of β-galactosidase and protein contents were measured to determine transfection efficacy, the transcription level of RAR or RXR receptor were measured with CAT ELISA (Roche Molecular Biochemical, Mannheim, Germany).

retinoid X receptor α = target: T2, retinoid X receptor α (Homo sapiens, UniProt P19793); test: as above; conditions: 1 μM, CAT ELISA, FIG. 2 (B)
T2 construct: expressed in transfected cells; host or cells: HaCAT
T2 sequence (P19793 1-462): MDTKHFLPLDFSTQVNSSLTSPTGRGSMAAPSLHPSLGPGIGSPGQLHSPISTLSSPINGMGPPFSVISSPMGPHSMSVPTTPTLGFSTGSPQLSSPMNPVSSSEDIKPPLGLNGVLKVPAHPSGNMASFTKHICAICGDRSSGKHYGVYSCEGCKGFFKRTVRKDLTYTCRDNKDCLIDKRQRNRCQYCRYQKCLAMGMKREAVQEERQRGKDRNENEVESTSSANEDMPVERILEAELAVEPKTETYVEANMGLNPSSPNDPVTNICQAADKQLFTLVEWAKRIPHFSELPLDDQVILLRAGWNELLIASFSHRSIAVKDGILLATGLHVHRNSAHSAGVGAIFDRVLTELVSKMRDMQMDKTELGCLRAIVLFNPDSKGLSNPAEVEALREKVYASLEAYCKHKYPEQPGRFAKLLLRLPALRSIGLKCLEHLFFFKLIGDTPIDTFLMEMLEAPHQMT
Description: as §1, §2

retinoic acid receptor α = target: T3, retinoic acid receptor α (Homo sapiens, UniProt P10276); test: RAR activity test, DR5-tk-CAT reporter in HaCAT cells; conditions: 1 μM, CAT ELISA, FIG. 2 (A)
T3 construct: expressed in transfected cells; b135 says HaCAT
T3 sequence (P10276 1-462): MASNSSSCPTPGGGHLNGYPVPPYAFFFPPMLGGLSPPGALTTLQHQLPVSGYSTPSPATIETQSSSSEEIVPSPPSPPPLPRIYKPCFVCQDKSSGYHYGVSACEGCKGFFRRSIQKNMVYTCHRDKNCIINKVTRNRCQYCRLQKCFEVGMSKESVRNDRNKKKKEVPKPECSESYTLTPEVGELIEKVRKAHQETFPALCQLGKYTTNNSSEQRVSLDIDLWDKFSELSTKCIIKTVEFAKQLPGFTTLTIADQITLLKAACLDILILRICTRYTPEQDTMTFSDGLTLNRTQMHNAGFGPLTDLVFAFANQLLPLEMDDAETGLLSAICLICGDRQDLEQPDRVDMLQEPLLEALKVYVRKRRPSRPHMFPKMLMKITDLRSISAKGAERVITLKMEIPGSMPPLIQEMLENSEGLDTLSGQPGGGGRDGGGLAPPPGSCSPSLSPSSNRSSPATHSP
Description: as §1, §2
(§3) To determine the effect of retinol-(N-formyl-aspartam) on retinoic acid receptors, each retinoic acid receptor (α, β, or ? ) expression vector and activity measuring DR5-tk-CAT plasmid were introduced with liposome. After treating cells with retinol-(N-formyl-aspartam), the cell extracts were isolated. The expression level of CAT were measured with CAT ELISA to determine the effect of retinol-(N-formyl-aspartam) on the activity of retinoic acid receptors.

retinoic acid receptor β = target: T4, retinoic acid receptor β (Homo sapiens, UniProt P10826); test: as above; conditions: 1 μM, CAT ELISA, FIG. 2 (A)
T4 construct: expressed in transfected cells; b135 says HaCAT
T4 sequence (P10826 1-455): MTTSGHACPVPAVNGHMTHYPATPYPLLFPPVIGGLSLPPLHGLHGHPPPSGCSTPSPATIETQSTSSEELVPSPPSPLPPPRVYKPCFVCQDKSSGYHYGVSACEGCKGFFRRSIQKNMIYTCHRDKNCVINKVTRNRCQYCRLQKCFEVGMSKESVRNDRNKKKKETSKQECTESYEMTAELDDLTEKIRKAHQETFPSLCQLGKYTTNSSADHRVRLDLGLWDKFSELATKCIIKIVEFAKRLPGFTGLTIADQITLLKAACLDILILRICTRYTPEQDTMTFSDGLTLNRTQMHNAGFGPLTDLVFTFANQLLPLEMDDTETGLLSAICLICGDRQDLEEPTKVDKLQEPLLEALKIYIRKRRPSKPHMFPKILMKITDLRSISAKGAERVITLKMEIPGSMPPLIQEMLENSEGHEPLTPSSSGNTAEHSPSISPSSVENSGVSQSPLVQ
Description: as §1, §2, §3

- activation of retinoid X receptor γ (retinoid X receptor γ): no activation
- activation of retinoid X receptor α (retinoid X receptor α): no activation
- activation of retinoic acid receptor α (retinoic acid receptor α): high activation
- activation of retinoic acid receptor β (retinoic acid receptor β): weak activation
SMILES: COC(=O)C(Cc1ccccc1)NC(=O)[C@H](CC(=O)OC/C=C(C)/C=C/C=C(C)/C=C/C1=C(C)CCCC1(C)C)NC=O (stereo partly drawn) [retinol-(N-formyl-aspartam), (2E,4E,6E,8E)-3,7-dimethyl-9-(2,6,6-trimethyl-1-cyclohexenyl)-2,4,6,8-nonatetraenyl(3S)-4-[(1-benzyl-2-methoxy-2-oxoethyl)amino]-3-formylamino-4-oxobutanoate]
